Measurements: patent publication US11021481B2, “Substituted isoindolin-1-ones and 2,3-dihydro-1h-pyrrolo[3,4-c]pyridin-1-ones as HPK1 antagonists” (Nimbus Saturn, Inc., priority 2019, dated 2021)
pIC50: −log10 of the molar value.

These compounds were tested against HPK1 (Homo sapiens (Human), UniProt Q92918) (assay: HPK1 biochemical enzyme assay (microfluidic mobility shift assay)). Details: 1.5 nM HPK1, ATP 1 mM final, 30 min preincubation, 60 min at RT, Caliper EZ Reader; read-out: HPK1 1000UMATP caliper IC50.
HPK1, sequence (Q92918 whole entry): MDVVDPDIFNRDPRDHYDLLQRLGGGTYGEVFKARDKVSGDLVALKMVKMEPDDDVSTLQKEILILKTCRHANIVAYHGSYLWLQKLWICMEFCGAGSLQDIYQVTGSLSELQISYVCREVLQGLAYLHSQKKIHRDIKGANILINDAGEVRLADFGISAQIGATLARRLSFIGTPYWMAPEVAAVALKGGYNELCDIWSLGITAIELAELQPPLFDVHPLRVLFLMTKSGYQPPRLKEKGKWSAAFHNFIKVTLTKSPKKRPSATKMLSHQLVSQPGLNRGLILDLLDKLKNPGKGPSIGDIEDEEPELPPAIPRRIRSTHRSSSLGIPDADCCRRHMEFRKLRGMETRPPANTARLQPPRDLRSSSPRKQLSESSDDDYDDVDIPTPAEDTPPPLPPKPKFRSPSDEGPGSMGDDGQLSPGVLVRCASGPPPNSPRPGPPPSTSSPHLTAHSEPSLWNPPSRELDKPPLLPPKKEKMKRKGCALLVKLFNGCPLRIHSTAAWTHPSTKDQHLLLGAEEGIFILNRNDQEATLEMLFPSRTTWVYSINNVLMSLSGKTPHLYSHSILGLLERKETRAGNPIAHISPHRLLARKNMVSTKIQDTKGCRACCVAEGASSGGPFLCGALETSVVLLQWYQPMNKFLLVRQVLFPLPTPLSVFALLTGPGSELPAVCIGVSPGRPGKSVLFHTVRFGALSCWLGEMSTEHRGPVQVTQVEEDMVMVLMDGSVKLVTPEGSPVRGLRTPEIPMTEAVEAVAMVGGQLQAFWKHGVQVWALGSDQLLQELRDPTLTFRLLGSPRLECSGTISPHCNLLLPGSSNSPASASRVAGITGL
Procedure, shortened: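 Mobility shift readout of HPK1 activity after a 60 min RT reaction with 1 mM ATP, 1 μM substrate and 5 mM MgCl2. Enzyme/substrate mix was first exposed to compounds for 30 min, using ten-point curves topping at 3 μM final.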

| pIC50 | Structure (SMILES) |
| --- | --- |
| > 7.00 | CN1CCN(c2cccc(Nc3ccc(-c4cnc5cc(F)ccn45)c4c3C(=O)NC4)n2)CC1 [I-230, 4-(7-fluoroimidazo [1,2-a]pyridin-3-yl)-7-[[6-(4-methylpiperazin-1-yl)-2-pyridyl)amino] isoindolin-1-one] |
| > 7.00 | Cn1ccc2c(-c3ncc(Nc4cccc(N5CCC[C@@H](N)C5)n4)c4c3CNC4=O)ccnc21 [I-231, 7-[[6-[(3R)-3-amino-1-piperidyl]-2-pyridyl]-amino]-4-(1-methylpyrrolo [2,3-b]pyridin-4-yl)-2,3-dihydropyrrolo [3,4-c]pyridin-1-one] |
| > 7.00 | Cn1ccc2c(-c3ncc(Nc4cccc(N5CCNCC5)n4)c4c3CNC4=O)ccnc21 [I-232, 4-(1-methylpyrrolo [2,3-b]pyridin-4-yl)-7-[(6-piperazin-1-yl-2-pyridyl)amino]-2,3-dihydropyrrolo [3,4-c]pyridin-1-one] |
| > 7.00 | Cc1ccn2c(-c3ccc(Nc4ccc(N5CCC[C@@H](C(C)(C)O)C5)cn4)c4c3CNC4=O)cnc2n1 [I-233, 7-[[5-[(3R)-3-(1-hydroxy-1-methyl-ethyl)-1-piperidyl)-2-pyridyl)-amino]-4-(7-methylimidazo [1,2-a]pyrimidin-3-yl]isoindolin-1-one] |
| 6.00 to 7.00 | CN1CCN(c2cccc(Nc3ccc(-c4cnc5cnccn45)c4c3C(=O)NC4)n2)CC1 [I-234, 4-imidazo[1,2-a]pyrazin-3-yl-7-[[6-(4-methylpiperazin-1-yl)-2-pyridyl]-amino]isoindolin-1-one] |
| > 7.00 | COCCN(C)c1ccc(Nc2ccc(-c3cnc4cc(F)ccn34)c3c2C(=O)NC3)nc1 [I-235, 4-(7-fluoroimidazo [1,2-a]pyridin-3-yl)-7-[[5-[2-methoxyethyl (methyl)amino]-2-pyridyl]amino] isoindolin-1-one] |
| > 7.00 | CN1CCN(c2cccc(Nc3ccc(-c4cnc5cc(Cl)ccn45)c4c3C(=O)NC4)n2)CC1 [I-236, 4-(7-chloroimidazo [1,2-a]pyridin-3-yl)-7-[[6-(4-methylpiperazin-1-yl)-2-pyridyl]amino] isoindolin-1-one] |
| 6.00 to 7.00 | Cc1cc2c(-c3ncc(Nc4ccc(N5CCC[C@@H](C(C)(C)O)C5)cn4)c4c3CNC4=O)ccnc2n1C [I-237, 4-[1,2-dimethylpyrrolo [2,3-b]pyridin-4-yl)-7-[[5-[(3R)-3-(1-hydroxy-1-methyl-ethyl)-1-piperidyl]-2-pyridyl]amino]-2,3-dihydropyrrolo [3,4-c]pyridin-1-one] |
| > 7.00 | O=C1NCc2c(-c3cnc4cc(F)ccn34)ccc(Nc3ccc(CN4CCOCC4)cn3)c21 [I-238, 4-(7-fluoroimidazo [1,2-a]pyridin-3-yl)-7-[[5-(morpholino-methyl)-2-pyripyl]amino] isoindolin-1-one] |
| 6.00 to 7.00 | CN[C@@H]1CCCN(c2cccc(Nc3cnc(-c4ccnc5c4ccn5C)c4c3C(=O)NC4)n2)C1 [I-239, 7-[[6-[(3R)-3-(methylamino)-1-piperidyl]-2-pyridyl]-amino]-4-(1-methylpyrrolo [2,3-b]pyridin-4-yl)-2,3-dihydropyrrolo [3,4-c]pyridin-1-one] |
| 6.00 to 7.00 | Cn1ccc2c(-c3ncc(Nc4cccc(N5CCCNCC5)n4)c4c3CNC4=O)ccnc21 [I-240, 7-[[6-(1,4-diazepan-1-yl)-2-pyridyl]amino]-4-(1-methylpyrrolo [2,3-b]pyridin-4-yl)-2,3-dihydropyrrolo [3,4-c]pyridin-1-one] |
| > 7.00 | Cc1cccn2c(-c3ncc(Nc4ccc(N5CCC[C@H](C(C)(C)O)C5)cn4)c4c3CNC4=O)cnc12 [I-241, 7-[[5-[(3S)-3-(1-hydroxy-1-methyl-ethyl)-1-piperidyl]-2-pyridyl]-amino]-4-(8-methylimidazo [1,2-a]pyridin-3-yl)-2,3-dihydropyrrolo [3,4-c]pyridin-1-one] |
| > 7.00 | COc1c(F)ccn2c(-c3ccc(Nc4ccc(N5CCC(O)CC5)cn4)c4c3CNC4=O)cnc12 [I-242, 4-(7-fluoro-8-methoxy-imidazo[1,2-a]pyridin-3-yl)-7-[[5-(4-hydroxy-1-piperidyl)-2-pyridyl]amino] isoindolin-1-one] |
| > 7.00 | CC(C)(O)[C@H]1CCCN(c2ccc(Nc3cnc(-c4cnc5c(F)cccn45)c4c3C(=O)NC4)nc2)C1 [I-243, 4-(8-fluoroimidazo [1,2-a]pyridin-3-yl)-7-[[5-[(3S)-3-(1-hydroxy-1-methyl-ethyl)-1-piperidyl]-2-pyridyl]-amino]-2,3-dihydropyrrolo [3,4-c]pyridin-1-one] |
| > 7.00 | CNC1(C)CCN(c2ccc(Nc3cnc(-c4ccnc5c4ccn5C)c4c3C(=O)NC4)nc2)CC1 [I-244, 7-[[5-[4-methyl-4-(methylamino)-1-piperidyl]-2-pyridyl]-amino]-4-(1-methylpyrrolo [2,3-b]pyridin-4-yl)-2,3-dihydropyrrolo [3,4-c]pyridin-1-one] |
| > 7.00 | CN[C@H]1CCN(c2cccc(Nc3cnc(-c4ccnc5c4ccn5C)c4c3C(=O)NC4)n2)C1 [I-245, 7-[[6-[(3S)-3-(methylamino)pyrrolidin-1-yl]-2-pyridyl]amino]-4-(1-methylpyrrolo [2,3-b]pyridin-4-yl)-2,3-dihydropyrrolo [3,4-c]pyridin-1-one] |

| pIC50 | Structure (SMILES) |
| --- | --- |
| > 7.00 | CN(C)CCN(C)c1cccc(Nc2cnc(-c3ccnc4c3ccn4C)c3c2C(=O)NC3)n1 [I-246, 7-[[6-[2-(dimethylami-no)ethyl-methyl-amino]-2-pyridyl]-amino]-4-(1-methylpyrrolo [2,3-b]pyridin-4-yl)-2,3-dihydropyrrolo [3,4-c]pyridin-1-one] |
| > 7.00 | CN1CCN(c2cccc(Nc3ccc(-c4ccnc5c4ccn5C)c4c3C(=O)NC4)n2)CC1 [I-247, 7-[[6-(4-methylpiperazin-1-yl)-2-pyridyl]amino]-4-(1-methylpyrrolo [2,3-b]pyridin-4-yl)isoindolin-1-one] |
| < 6.00 | Cc1nc2ccccn2c1-c1ncc(Nc2ccc(N3CCC(O)CC3)cn2)c2c1CNC2=O [I-248, 7-[[5-(4-hydroxy-1-piperidyl)-2-pyridyl]-amino]-4-(2-methylimidazo [1,2-a]pyridin-3-yl)-2,3-dihydropyrrolo [3,4-c]pyridin-1-one] |
| 6.00 to 7.00 | CN(C)CCOc1ccn2c(-c3ccc(Nc4ccc(N5CCC(F)C(O)C5)cn4)c4c3CNC4=O)cnc2c1 (centres unmarked) [I-249] |
| 6.00 to 7.00 | CN1CCN(c2ccc(Nc3cnc(-c4c[nH]c5cc(O)ccc45)c4c3C(=O)NC4)nc2)CC1 [I-250] |
| > 7.00 | CN1CCN(c2ccc(Nc3cnc(-c4cccc5c4ccn5C)c4c3C(=O)NC4)nc2)CC1 [I-251, 4-(1-methyl-1H-indol-4-yl)-7-((5-(4-methylpiperazin-1-yl)pyridin-2-yl)amino)-2,3-dihydro-1H-pyrrolo[3,4-c]pyridin-1-one] |
| 6.00 to 7.00 | CN1CCN(c2ccc(Nc3cnc(-c4cccc5[nH]ccc45)c4c3C(=O)NC4)nc2)CC1 [I-252, 4-(1H-indol-4-yl)-7-((5-(4-methylpiperazin-1-yl)pyridin-2-yl)amino)-2,3-dihydro-1H-pyrrolo[3,4-c]pyridin-1-one] |
| < 6.00 | CN1CCN(c2ccc(Nc3cnc(-c4c[nH]c5nc(C(F)(F)F)ccc45)c4c3C(=O)NC4)nc2)CC1 [I-253, 7-((5-(4-methylpiperazin-1-yl)pyridin-2-yl)amino]-4-(6-(trifluorometh-yl)-1H-pyrrolo[2,3-b]pyridin-3-yl)-2,3-dihydro-1H-pyrrolo[3,4-c]pyridin-1-one] |
| 6.00 to 7.00 | CN1CCN(c2ccc(Nc3cnc(-c4cnn5c4CCC5)c4c3C(=O)NC4)nc2)CC1 [I-254, 4-(5,6-dihydro-4H-pyrrolo[1,2-b]pyrazol-3-yl)-7-((5-(4-methylpiperazin-1-yl)pyridin-2-yl)amino)-2,3-dihydro-1H-pyrrolo[3,4-c]pyridin-1-one] |
| > 7.00 | CN1CCN(c2ccc(Nc3cnc(-c4cnn5c4CCCC5)c4c3C(=O)NC4)nc2)CC1 [I-255, 7-((5-(4-methylpiperazin-1-yl)pyridin-2-yl)amino)-4-(4,5,6,7-tetrahydropyra-zolo[1,5-a]pyridin-3-yl)-2,3-dihydro-1H-pyrrolo[3,4-c]pyridin-1-one] |
| > 7.00 | CN1CCN(c2ccc(Nc3ccc(-c4ccn5ncccc45)c4c3C(=O)NC4)nc2)CC1 [I-256, 7-((5-(4-methylpiperazin-1-yl)pyridin-2-yl)amino)-4-(pyrrolo[1,2-b]pyridazin-5-yl)isoindolin-1-one] |
| 6.00 to 7.00 | CN1CCN(c2ccc(Nc3ccc(-c4ccnc5c4ccn5Cc4ccccc4)c4c3C(=O)NC4)nc2)CC1 [I-257, 4-(1-benzyl-1H-pyrrolo[2,3-b]pyridin-4-yl)-7-((5-(4-methylpiperazin-1-yl)pyridin-2-yl)amino)isoin-dolin-1-one] |
| > 7.00 | Cn1ccc2c(-c3ncc(Nc4ccc(N5CCNCC5)cn4)c4c3CNC4=O)ccnc21 [I-258, 4-(1-methyl-1H-pyrrolo[2,3-b]pyridin-4-yl)-7-((5-(piperazin-1-yl)pyridin-2-yl)amino)-2,3-dihydro-1H-pyrrolo[3,4-c]pyridin-1-one] |
| < 6.00 | CN1CCN(c2ccc(Nc3cnc(-c4c[nH]c5cc(OCc6ccccc6)ccc45)c4c3C(=O)NC4)nc2)CC1 [I-260, 4-(6-(benzyloxy)-1H-indol-3-yl)-7-((5-(4-methylpiperazin-1-yl)pyridin-2-yl)amino)-2.3-dihydro-1H-pyrrolo[3,4-c]pyridin-1-one] |
| > 7.00 | C[C@@H]1COc2c(-c3ccc(Nc4ccc(N5CCN(C)CC5)cn4)c4c3CNC4=O)cnn2C1 [I-261, (S)-4-(6-methyl-6,7-dihydro-5H-pyrazolo[5,1-b][l,3]oxazin-3-yl)-7-((5-(4-methylpiperazin-1-yl)pyridin-2-yl)amino)isoin-dolin-1-one] |

| Structure (SMILES) | pIC50 |
| --- | --- |
| Cn1ccc2c(-c3ncc(Nc4ccc(N5CC6CCC(C5)N6)cn4)c4c3CNC4=O)ccnc21 [I-262, 7-((5-(3,8-diazabicyclo [3.2.1]octan-3-yl)pyridin-2-yl)amino)-4-(1-methyl-1H-pyrrolo[2,3-b]pyridin-4-yl)-2,3-dihydro-1H-pyrrolo[3,4-c]pyridin-1-Fone] | > 7.00 |
